These results are taken from patent US20230295087A1, “AGONISTS OF ROR GAMMAt” (BRISTOL-MYERS SQUIBB COMPANY, priority 2019, published 2023).

The target in the test is T1, human RORgT (Homo sapiens, UniProt P51449).
T1 construct: expressed in transfected cells
T1 sequence (P51449 267-516): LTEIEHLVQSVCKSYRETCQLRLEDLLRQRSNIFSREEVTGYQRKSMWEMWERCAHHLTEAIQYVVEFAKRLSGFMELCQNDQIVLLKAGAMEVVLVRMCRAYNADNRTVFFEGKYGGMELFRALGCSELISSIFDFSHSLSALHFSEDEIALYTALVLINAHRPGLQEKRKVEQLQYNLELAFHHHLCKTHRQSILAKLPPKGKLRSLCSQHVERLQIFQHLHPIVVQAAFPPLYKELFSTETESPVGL
As to the kind of experiment: RORgT Gal4 Luciferase Reporter Gene Assay. Type of test: cell-based. As to conditions: engineered Jurkat cells overexpressing RORgT (LBD or full length) fused with Gal4 Luc reporter; 18 hours at 37° C.; luminescence. As to the method:
RORgT Gal4 Luciferase Reporter Gene Assay
25 µL of cryopreserved Jurkat cells over expressing ligand binding domain (LBD) of RORgT (aa267-516, NM_005060) and Gal4 Luc, or full length of human RORgT and Gal4 Luc, were plated in 384-well solid white cell culture plates (PerkinElmer 6007899), with a density of 10,000 cells/well in RPMI 1640 cell culture media (Gibco 11875-085). The media contained 0.1% BSA, 10 mM HEPES (Gibco 15360-080), […] Sodium Pyruvate (Gibco 11360-040), […] Hygromycin B (Invitrogen 10687-010), and […] Blasticidin (Invitrogen R210-01).
100 nL of compound at varying concentrations in 3-fold serial dilution, with final concentrations ranging from 40 µM to 0.67 nM, were added to the cells using Labcyte Echo 550. The compound and the cells were incubated for 18 hours at 37° C. in a cell culture incubator. Cells were then lysed with 15 uL of Steady-Glo Luciferase Assay reagent (Promega EZ550), followed by centrifuging the assay plates at 1500 RPM for 1 minute. Subsequently, the plates were read on the Envision (PerkinElmer). The inhibition of constitutive activity of RORgT achieved by graded concentrations of compound was calculated as a percentage of the luminescence signal window reduction over a control compound.
(In general: A reporter such as luciferase makes a cellular process visible.)

The structures appear in SMILES notation.

Turning to `O=C(O)[C@H]1CC[C@](O)(C(=O)N2CC[C@@]3(S(=O)(=O)c4ccc(F)cc4)c4ccc(OCc5c(F)cccc5Cl)cc4CC[C@@H]23)CC1` [Example 23, (1s,4s)-4-[(3aR,9bR)-7-[(2-chloro-6-fluorophenyl)methoxy]-9b-(4-fluorobenzenesulfonyl)-1H,2H,3H,3aH,4H,5H,9bH-benzo[e]indole-3-carbonyl]-4-hydroxycyclohexane-1-carboxylic acid], the midpoint of the response, the EC50, lay at 55 nM.
Then `C[C@]1(C(=O)O)CC[C@H](C(=O)N2CC[C@@]3(S(=O)(=O)c4ccc(F)cc4)c4ccc(OCc5c(F)cccc5C(F)(F)F)cc4CC[C@@H]23)CC1` [Example 25, (1r,4r)-4-[(3aR,9bR)-7-{[2-fluoro-6-(trifluoromethyl)phenyl]methoxy}-9b-(4-fluorobenzenesulfonyl)-1H,2H,3H,3aH,4H,5H,9bH-benzo[e]indole-3-carbonyl]-1-methylcyclohexane-1-carboxylic acid], with 20 nM.
Then `C[C@@H]1C[C@@H](C(=O)O)CC[C@@H]1C(=O)N1CC[C@@]2(S(=O)(=O)c3ccc(F)cc3)c3ccc(OCc4c(F)cccc4C(F)(F)F)cc3CC[C@@H]12` [Example 26, (1S,3R,4S)-4-[(3aR,9bR)-7-{[2-fluoro-6-(trifluoromethyl)phenyl]methoxy}-9b-(4-fluorobenzenesulfonyl)-1H,2H,3H,3aH,4H,5H,9bH-benzo[e]indole-3-carbonyl]-3-methylcyclohexane-1-carboxylic acid], with 27 nM; and `O=C(O)[C@H]1CC[C@](O)(C(=O)N2CC[C@@]3(S(=O)(=O)c4ccc(F)cc4)c4ccc(OCc5c(F)cccc5C(F)(F)F)cc4CC[C@@H]23)CC1` [Example 27, (1 s,4 s)-4-[(3aR,9bR)-7-{ [2-fluoro-6-(trifluoromethyl)phenyl]methoxy} -9b-(4-fluorobenzenesulfonyl)-1H,2H,3H,3aH,4H,5H,9bH-benzo[e]indole-3-carbonyl] -4-hydroxycyclohexane-1-carboxylic acid], with 99 nM.
Turning to `O=C1CC[C@@H](C(=O)N2CC[C@@]3(S(=O)(=O)c4ccc(F)cc4)c4ccc(OCc5c(F)cccc5C(F)(F)F)cc4CC[C@@H]23)N1Cc1ccc(F)cc1` [Example 28, (5S)-5-[(3aR,9bR)-7-{[2-fluoro-6-(trifluoromethyl)phenyl]methoxy} -9b-(4-fluorobenzenesulfonyl)-1H,2H,3H,3aH,4H,5H,9bH-benzo[e]indole-3-carbonyl]-1-[(4-fluorophenyl)methyl]pyrrolidin-2-one], a half-maximal effect (EC50) was put at 8.2 nM.
Then `CC(C#N)CN1C(=O)CC[C@H]1C(=O)N1CC[C@@]2(S(=O)(=O)c3ccc(F)cc3)c3ccc(OCc4c(F)cccc4C(F)(F)F)cc3CC[C@@H]12` (stereo partly drawn) [Example 29, 3-[(2S)-2-[(3aR,9bR)-7-{[2-fluoro-6-(trifluoromethyl)phenyl]methoxy} -9b-(4-fluorobenzenesulfonyl)-1H,2H,3H,3aH,4H,5H9bH-benzo[e]indole-3-carbonyl]-5-oxopyrrolidin-1-yl]-2-methylpropanenitrile], with 3.6 nM.
Then `CN1C[C@@H](C(=O)N2CC[C@@]3(S(=O)(=O)c4ccc(F)cc4)c4ccc(OCc5c(F)cccc5C(F)(F)F)cc4CC[C@@H]23)NC1=O` [Example 30, (4S)-4-[(3aR,9bR)-7-{[2-fluoro-6-(trifluoromethyl)phenyl]methoxy} -9b-(4-fluorobenzenesulfonyl)-1H,2H,3H,3aH,4H,5H,9bH-benzo[e]indole-3-carbonyl]-1-methylimidazolidin-2-one], with 3.9 nM.
Then `O=C(C1CCS(=O)(=O)CC1)N1CC[C@@]2(S(=O)(=O)c3ccc(F)cc3)c3ccc(Cc4ccccc4)cc3CC[C@@H]12` [Example 31, 4-[(3aR,9bR)-7-benzyl-9b-(4-fluorobenzenesulfonyl)-1H,2H,3H,3aH,4H,5H,9bH-benzo[e]indole-3-carbonyl]-1λ^6-thiane-1,1-dione], with 1.6 nM.
